# Laboratory results reported in patent US20100210467A1, “AGENT FOR IMPROVING SUGARCANE BRIX AND METHOD OF PROMOTING SUGARCANE RIPENING USING THE SAME” (Kumiai Chemical Industry Co., Ltd., priority 2007, published 2010).
# Tests used:
# Format in all cases: in vivo
# sugarcane [1] = assay: Example 5: sugar content of sugarcane stem juice after bispyribac-sodium and/or gibberellin spraying, field test in Brazil; settings: 20 g/ha
# Method: (§1) In accordance with “NORMAS DE AVALIAçÃO DA […] DA CANA-DE-AçÚCAR” used in Brazilian sugar refining plants as Standard for quality evaluation of sugarcane, the analysis on the sugar content in the squeezed juice of sugarcane stem was carried out for Brix value, sugar content in sugarcane (PC), and total sugar amount recoverable from sugarcane stem (ATR) as follows.
# (§2) Brix was measured according to a digital refractometer. PC was calculated according to the equation (1). ATR was calculated according to the equation (5).
# At the time the Brix value of sugarcane grown in a sugarcane cultivated area in Brazil (an average Brix value in the harvesttime being 18%) became 88% of the aforesaid average Brix value, a bispyribac-sodium formulation (a commercially available product, a tradename, “NOMINEE 400SC”) and a gibberellin formulation (a commercially available product, a tradename, “PRO-GIBB”) were admixed together and diluted with water or separately diluted with water so that the amount of the effective ingredient in 105 liters of each of the spraying liquids could be equal to the used amount shown in Table 8, and each liquid was sprayed above the plant by the aid of a CO2-pressurized back pack sprayer to the test area at a rate of 105 liters per hectare.
# (§3) In a control area, a known sulfometuron-methyl formulation (a commercially available product, a tradename “CURAVIAL”) was similarly sprayed.
# (§4) Next, 20 individual sugarcanes were cut from each area on the initial day of spraying, after 15 days of spraying, after 30 days of spraying and after 45 days of spraying, and thereafter the stems were squeezed and sugar was recovered from the juice to obtain the yield. Each yield was compared with the yield of the initial day of spraying and the rate of increase (%) was calculated. The analysis on the sugar content in the squeezed juice of sugarcane stems was carried out similarly as in the case of Example 1.
# sugarcane [2] = assay: Example 2: sugar content of sugarcane stem juice after spraying from an aircraft, field test in Brazil; settings: after 30 days of spraying
# Method: as §1, §2
# At the time the Brix value of sugarcane grown in a sugarcane cultivated area in Brazil (an average Brix value in the harvesttime being 21%) became 81% of the aforesaid average Brix value, a bispyribac-sodium formulation (a commercially available product, a tradename “NOMINEE 400SC”) was diluted with water so that the amount of the effective ingredient in 30 liters of the spraying liquid could be equal to the used amount shown in Table 3, and the liquid was sprayed over the test area from an air-craft at a rate of 30 liters per hectare.
# In a control area, a known fluazifop formulation (a commercially available product, a tradename “[…]”) was similarly sprayed.
# Next, 5 individual sugarcanes were cut from 5 locations in each area, i.e. 25 sugarcanes from each area, on the initial day of spraying and after 30 days of spraying, and thereafter the stems were squeezed and sugar was recovered from the juice to obtain the yield. The yield after 30 days of spraying was compared with the yield of the initial day of spraying and the rate of increase (%) was calculated. The analysis on the sugar content in the squeezed juice of sugarcane stems was carried out similarly as in the case of Example 1.
# sugarcane [3] = assay: Example 1: sugar content of sugarcane stem juice after power-sprayer application, field test in Brazil
# Method: With respect to sugarcane grown in a sugarcane cultivated area in Brazil (an average Brix value in the harvesttime being 18%), a juice was collected from 5 middle internodes selected at random in the sugarcane stem and the Brix value was measured according to a usual method. At the time the measured Brix value became 82% of the aforementioned average Brix value, a bispyribac-sodium formulation (a commercially available product, a tradename “NOMINEE 400SC”) was diluted with water so that the amount of the effective ingredient in 74 liters of the spraying liquid could be equal to the used amount shown in Table 1. The liquid was then sprayed above the plant by the aid of a power sprayer to a test area at a rate of 74 liters per hectare.
# as §3
# Next, 10 individual sugarcanes were cut from each area on the initial day of spraying, after 30 days of spraying and after 45 days of spraying, and thereafter the stem was squeezed and sugar was recovered from the juice to obtain the yield. Each yield was compared with the yield of the initial day of spraying and the rate of increase (%) was calculated.
# as §1, §2
# S denotes a sugar content in the extracted liquid and is calculated according to the equation (2). F denotes an amount of fibers in sugarcane and is calculated according to the equation (3). C denotes a conversion coefficient from the sugar content in the extracted liquid to an absolute amount and is calculated according to the equation (4).
# LAI denotes a measured value by the digital saccharimeter after clarification of the juice by a clarifying mixture made from aluminum.
# PBU denotes the mass of a wet bagasse exhausted from a pressing machine in the squeezed step of sugarcane stem.
# ARC denotes an amount of reducing sugar of sugarcane and is calculated from the following equation (6).
# AR denotes an amount of reducing sugar in the extracted liquid and is calculated from the following equation (7).
# sugarcane [4] = assay: Example 6: sugar content of sugarcane stem juice after bispyribac-sodium + prohexadione-calcium spraying, field test in Brazil; settings: 200 g/ha
# Method: as §1, §2
# At the time the Brix value of sugarcane grown in a sugarcane cultivated area in Brazil (an average Brix value in the harvesttime being 20%) became 80% of the aforesaid average Brix value, a bispyribac-sodium formulation (a commercially available product, a tradename, “NOMINEE 400SC”) and a prohexadione-calcium formulation (a tradename, “VIVIFUL”) were admixed together and diluted with water so that the amount of the effective ingredient in 105 liters of each spraying liquid could be equal to the used amount shown in Table 10, and the liquid was sprayed above the plant by the aid of a CO2-pressurized back pack sprayer to the test area at a rate of 105 liters per hectare.
# In a control area, a known trinexapac-ethyl formulation (a commercially available product, a tradename “MODDUS”) was similarly sprayed.
# as §4
# [5] = 16 g/ha, after 30 days of spraying
# [6] = 16 g/ha, after 45 days of spraying
# [7] = 35 g/ha, after 30 days of spraying
# [8] = 35 g/ha, after 45 days of spraying
smiles,measurement,setting,value
COc1cc(OC)nc(Oc2cccc(Oc3nc(OC)cc(OC)n3)c2C(=O)O)n1 [Bispyribac-sodium],ATR increased rate from the initial day of spraying,sugarcane [1]; after 15 days of spraying,6.2%
same,Brix increased rate from the initial day of spraying,sugarcane [1]; after 15 days of spraying,4.5%
same,"Concentration of soluble solid matter, Brix",sugarcane [1]; after 15 days of spraying,16.2%
same,"Total sugar amount recoverable from 1 kg of stem, ATR",sugarcane [1]; after 15 days of spraying,112.5 g
same,ATR increased rate from the initial day of spraying,sugarcane [1]; after 30 days of spraying,17.3%
same,Brix increased rate from the initial day of spraying,sugarcane [1]; after 30 days of spraying,11.7%
same,"Concentration of soluble solid matter, Brix",sugarcane [1]; after 30 days of spraying,17.3%
same,"Total sugar amount recoverable from 1 kg of stem, ATR",sugarcane [1]; after 30 days of spraying,124.2 g
same,ATR increased rate from the initial day of spraying,sugarcane [1]; after 45 days of spraying,19.1%
same,Brix increased rate from the initial day of spraying,sugarcane [1]; after 45 days of spraying,12.9%
same,"Concentration of soluble solid matter, Brix",sugarcane [1]; after 45 days of spraying,17.5%
same,"Total sugar amount recoverable from 1 kg of stem, ATR",sugarcane [1]; after 45 days of spraying,126.1 g
same,ATR increased rate from the initial day of spraying,sugarcane [2]; 25 g/ha,22.3%
same,Brix increased rate from the initial day of spraying,sugarcane [2]; 25 g/ha,19.8%
same,"Concentration of soluble solid matter, Brix",sugarcane [2]; 25 g/ha,19.9%
same,PC increased rate from the initial day of spraying,sugarcane [2]; 25 g/ha,24.1%
same,"Sugar content in sugarcane, PC",sugarcane [2]; 25 g/ha,14.6%
same,"Total sugar amount recoverable from 1 kg of stem, ATR",sugarcane [2]; 25 g/ha,141.8 g
same,ATR increased rate from the initial day of spraying,sugarcane [2]; 30 g/ha,22.1%
same,Brix increased rate from the initial day of spraying,sugarcane [2]; 30 g/ha,21.6%
same,"Concentration of soluble solid matter, Brix",sugarcane [2]; 30 g/ha,20.8%
same,PC increased rate from the initial day of spraying,sugarcane [2]; 30 g/ha,25.2%
same,"Sugar content in sugarcane, PC",sugarcane [2]; 30 g/ha,15.6%
same,"Total sugar amount recoverable from 1 kg of stem, ATR",sugarcane [2]; 30 g/ha,149.0 g
same,ATR increased rate from the initial day of spraying,sugarcane [3]; [5],23.1%
same,Brix increased rate from the initial day of spraying,sugarcane [3]; [5],23.0%
same,"Concentration of soluble solid matter, Brix",sugarcane [3]; [5],18.4%
same,PC increased rate from the initial day of spraying,sugarcane [3]; [5],25.7%
same,"Sugar content in sugarcane, PC",sugarcane [3]; [5],13.0%
same,"Total sugar amount recoverable from 1 kg of stem, ATR",sugarcane [3]; [5],129.7 g
same,ATR increased rate from the initial day of spraying,sugarcane [3]; [6],44.9%
same,Brix increased rate from the initial day of spraying,sugarcane [3]; [6],41.0%
same,"Concentration of soluble solid matter, Brix",sugarcane [3]; [6],21.1%
same,PC increased rate from the initial day of spraying,sugarcane [3]; [6],50.9%
same,"Sugar content in sugarcane, PC",sugarcane [3]; [6],15.5%
same,"Total sugar amount recoverable from 1 kg of stem, ATR",sugarcane [3]; [6],152.7 g
same,ATR increased rate from the initial day of spraying,sugarcane [3]; [7],32.0%
same,Brix increased rate from the initial day of spraying,sugarcane [3]; [7],29.5%
same,"Concentration of soluble solid matter, Brix",sugarcane [3]; [7],20.5%
same,PC increased rate from the initial day of spraying,sugarcane [3]; [7],35.9%
same,"Sugar content in sugarcane, PC",sugarcane [3]; [7],14.7%
same,"Total sugar amount recoverable from 1 kg of stem, ATR",sugarcane [3]; [7],145.1 g
same,ATR increased rate from the initial day of spraying,sugarcane [3]; [8],42.1%
same,Brix increased rate from the initial day of spraying,sugarcane [3]; [8],37.1%
same,"Concentration of soluble solid matter, Brix",sugarcane [3]; [8],21.7%
same,PC increased rate from the initial day of spraying,sugarcane [3]; [8],47.6%
same,"Sugar content in sugarcane, PC",sugarcane [3]; [8],15.9%
same,"Total sugar amount recoverable from 1 kg of stem, ATR",sugarcane [3]; [8],156.2 g
"CCOC(=O)C1CC(=O)C(=C(O)C2CC2)C(=O)C1 (stereo not drawn) [Trinexapac-ethyl, trinexapac-ethyl]",ATR increased rate from the initial day of spraying,sugarcane [4]; after 15 days of spraying,10.3%
same,Brix increased rate from the initial day of spraying,sugarcane [4]; after 15 days of spraying,8.0%
same,"Concentration of soluble solid matter, Brix",sugarcane [4]; after 15 days of spraying,17.5%
same,"Total sugar amount recoverable from 1 kg of stem, ATR",sugarcane [4]; after 15 days of spraying,125.3 g
same,ATR increased rate from the initial day of spraying,sugarcane [4]; after 30 days of spraying,18.0%
same,Brix increased rate from the initial day of spraying,sugarcane [4]; after 30 days of spraying,15.7%
same,"Concentration of soluble solid matter, Brix",sugarcane [4]; after 30 days of spraying,18.8%
same,"Total sugar amount recoverable from 1 kg of stem, ATR",sugarcane [4]; after 30 days of spraying,134.0 g
same,ATR increased rate from the initial day of spraying,sugarcane [4]; after 45 days of spraying,30.8%
same,Brix increased rate from the initial day of spraying,sugarcane [4]; after 45 days of spraying,24.7%
same,"Concentration of soluble solid matter, Brix",sugarcane [4]; after 45 days of spraying,20.2%
same,"Total sugar amount recoverable from 1 kg of stem, ATR",sugarcane [4]; after 45 days of spraying,148.5 g
